According to patent US11786503B2, “Pharmaceutical compositions and methods for countering chemotherapy induced cardiotoxicity” (Auransa Inc., priority 2016, dated 2023):
Blank lines part the entries; values can stand above or below the compound they belong to.

How the values were obtained:
[1] = test system: cardiomyocytes differentiated from induced pluripotent stem cells; assay: doxorubicin-induced mitochondrial toxicity, TMRM-negative cells, 48 hours (Example 17); format: cell-based, human; conditions: 1 μM doxorubicin, KAE 17 μM, AMB 0.76 μM, MES 10 μM, NAC 50 μM, Dex 160 μM, VIT 115 μM
Method: Following treatment, the samples were incubated with a tetramethylrhodamine methyl ester (TMRM) dye to indicate mitochondrial health, and a second dye to identify cell nuclei.

[2] = test system: cardiomyocytes differentiated from induced pluripotent stem cells; assay: long term toxicity on electrophysiology, active electrodes (Example 24); format: cell-based; conditions: various concentrations, at least 5 days
Method: Samples were either mock-treated with 0.1% DMSO, or treated with various concentrations of the indicated drug. Following treatment, the percentage of active electrodes in each sample was measured for at least 5 days. Percentage of active electrodes was quantified and graphed in a time course.

[3] = test system: cardiomyocytes; assay: cytotoxicity of myricetin analogs to cardiomyocytes (Table 1, Toxicity)
[4] = test system: MDA-MB-231 cells; conditions: co-treated with increasing concentrations of doxorubicin, 72 hours
[5] = target: T1, TOPOIIβ (Homo sapiens, UniProt Q02880); assay: kDNA decatenation assay, TOPOIIβ; format: biochemical;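 also: kinetoplast DNA incubated with one unit of TOPOIIβ at 37 °C for 30 min, decatenated product resolved on 1% agarose gel, inhibition scored from relative band intensity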
T1 construct: purchased Inspiralis
T1 sequence (Q02880 whole entry): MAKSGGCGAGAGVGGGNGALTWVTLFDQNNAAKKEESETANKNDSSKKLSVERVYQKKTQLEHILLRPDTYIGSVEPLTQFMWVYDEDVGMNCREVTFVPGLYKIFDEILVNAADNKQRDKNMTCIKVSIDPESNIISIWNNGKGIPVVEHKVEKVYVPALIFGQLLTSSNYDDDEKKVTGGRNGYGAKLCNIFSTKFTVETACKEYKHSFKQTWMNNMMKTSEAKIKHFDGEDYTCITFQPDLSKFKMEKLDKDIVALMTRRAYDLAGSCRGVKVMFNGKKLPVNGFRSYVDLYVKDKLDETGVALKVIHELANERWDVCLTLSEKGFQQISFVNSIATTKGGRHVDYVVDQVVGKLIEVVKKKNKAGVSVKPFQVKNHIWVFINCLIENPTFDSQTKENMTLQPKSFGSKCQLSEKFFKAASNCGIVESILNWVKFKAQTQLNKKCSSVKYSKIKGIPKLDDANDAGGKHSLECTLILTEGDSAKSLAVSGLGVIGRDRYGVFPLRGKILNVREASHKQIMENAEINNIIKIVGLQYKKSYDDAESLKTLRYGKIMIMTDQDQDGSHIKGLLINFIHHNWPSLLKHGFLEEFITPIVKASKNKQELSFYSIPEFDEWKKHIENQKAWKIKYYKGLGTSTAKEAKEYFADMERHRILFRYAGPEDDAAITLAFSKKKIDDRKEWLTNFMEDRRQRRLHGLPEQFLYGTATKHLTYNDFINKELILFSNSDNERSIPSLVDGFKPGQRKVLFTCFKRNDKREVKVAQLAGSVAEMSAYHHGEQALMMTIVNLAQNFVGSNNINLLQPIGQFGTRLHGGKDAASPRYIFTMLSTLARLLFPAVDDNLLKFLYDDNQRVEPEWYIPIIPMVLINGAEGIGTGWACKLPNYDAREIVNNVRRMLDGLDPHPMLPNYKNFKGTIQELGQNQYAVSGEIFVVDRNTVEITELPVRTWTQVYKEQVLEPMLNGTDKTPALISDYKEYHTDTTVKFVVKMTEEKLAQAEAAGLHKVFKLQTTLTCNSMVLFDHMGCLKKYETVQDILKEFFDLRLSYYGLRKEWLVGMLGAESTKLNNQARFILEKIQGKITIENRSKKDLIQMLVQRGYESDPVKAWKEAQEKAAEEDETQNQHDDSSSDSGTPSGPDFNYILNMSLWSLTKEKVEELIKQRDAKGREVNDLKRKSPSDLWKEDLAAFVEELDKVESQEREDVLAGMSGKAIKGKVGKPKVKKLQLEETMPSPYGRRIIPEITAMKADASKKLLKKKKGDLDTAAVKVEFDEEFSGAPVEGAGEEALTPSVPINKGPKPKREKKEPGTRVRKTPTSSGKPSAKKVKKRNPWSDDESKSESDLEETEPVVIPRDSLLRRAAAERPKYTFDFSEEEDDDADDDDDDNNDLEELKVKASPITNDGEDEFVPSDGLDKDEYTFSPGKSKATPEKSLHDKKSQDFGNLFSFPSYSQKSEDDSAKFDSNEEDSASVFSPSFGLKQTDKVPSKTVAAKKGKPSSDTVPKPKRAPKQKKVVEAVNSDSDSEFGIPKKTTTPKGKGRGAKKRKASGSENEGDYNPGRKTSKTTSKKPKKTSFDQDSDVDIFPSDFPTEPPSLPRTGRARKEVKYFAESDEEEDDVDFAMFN

[6] = test system: Doxorubicin treated human iPSC-derived cardiomyocytes; assay: iPSC-CM protection by myricetin analogs (Table 1); format: cell-based
[7] = target: T2, TOPOIIα (Homo sapiens, UniProt P11388); assay: kDNA decatenation assay, TOPOIIα; format: biochemical;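 also: kDNA incubated with one unit of TOPOIIα at 37 °C for 30 min, decatenated product resolved on 1% agarose gel, inhibition from relative band intensity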
T2 construct: purchased Inspiralis
T2 sequence (P11388 whole entry): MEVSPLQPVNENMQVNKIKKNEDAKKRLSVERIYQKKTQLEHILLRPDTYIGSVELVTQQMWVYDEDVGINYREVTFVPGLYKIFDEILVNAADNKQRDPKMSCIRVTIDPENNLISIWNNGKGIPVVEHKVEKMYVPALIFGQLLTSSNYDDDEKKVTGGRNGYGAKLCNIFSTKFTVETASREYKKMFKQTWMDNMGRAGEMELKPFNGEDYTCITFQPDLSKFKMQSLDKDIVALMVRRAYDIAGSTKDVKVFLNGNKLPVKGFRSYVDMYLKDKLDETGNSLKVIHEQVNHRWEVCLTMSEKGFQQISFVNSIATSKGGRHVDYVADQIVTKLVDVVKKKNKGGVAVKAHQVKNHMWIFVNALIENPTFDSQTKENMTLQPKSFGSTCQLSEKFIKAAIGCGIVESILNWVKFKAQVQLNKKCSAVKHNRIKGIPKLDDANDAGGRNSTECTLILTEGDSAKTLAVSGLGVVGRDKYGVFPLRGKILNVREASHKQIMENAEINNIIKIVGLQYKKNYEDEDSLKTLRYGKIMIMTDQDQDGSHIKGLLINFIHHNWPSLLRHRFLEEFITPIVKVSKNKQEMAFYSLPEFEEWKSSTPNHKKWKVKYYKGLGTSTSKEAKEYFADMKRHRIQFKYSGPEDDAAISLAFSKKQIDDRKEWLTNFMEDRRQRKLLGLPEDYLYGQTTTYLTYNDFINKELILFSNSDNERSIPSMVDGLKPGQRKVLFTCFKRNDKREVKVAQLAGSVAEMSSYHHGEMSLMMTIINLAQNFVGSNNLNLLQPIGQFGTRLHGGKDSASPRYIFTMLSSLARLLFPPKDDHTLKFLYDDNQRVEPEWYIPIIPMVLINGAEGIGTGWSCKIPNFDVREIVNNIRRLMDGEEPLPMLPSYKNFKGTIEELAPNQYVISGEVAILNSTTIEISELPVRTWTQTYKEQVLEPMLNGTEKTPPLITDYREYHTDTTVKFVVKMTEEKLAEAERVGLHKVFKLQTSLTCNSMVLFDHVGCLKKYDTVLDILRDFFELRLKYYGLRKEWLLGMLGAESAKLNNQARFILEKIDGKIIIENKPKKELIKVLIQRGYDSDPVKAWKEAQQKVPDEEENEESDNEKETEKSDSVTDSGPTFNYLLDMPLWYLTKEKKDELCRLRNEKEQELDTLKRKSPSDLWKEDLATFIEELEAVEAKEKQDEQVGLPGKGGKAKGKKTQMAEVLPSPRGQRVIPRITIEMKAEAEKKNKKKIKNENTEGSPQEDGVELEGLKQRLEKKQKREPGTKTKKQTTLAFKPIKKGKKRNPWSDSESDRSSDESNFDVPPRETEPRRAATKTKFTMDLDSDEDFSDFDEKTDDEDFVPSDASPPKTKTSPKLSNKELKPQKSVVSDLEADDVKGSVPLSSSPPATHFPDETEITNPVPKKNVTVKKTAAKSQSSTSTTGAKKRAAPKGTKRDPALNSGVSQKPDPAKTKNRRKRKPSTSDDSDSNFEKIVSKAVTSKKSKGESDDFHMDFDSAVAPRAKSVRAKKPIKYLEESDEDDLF

[8] = test system: A549 cells; assay: doxorubicin-mediated death of lung cancer cells, CellTiter-Glo (Example 22); format: cell-based; conditions: co-treated with increasing concentrations of doxorubicin, 72 hours
Method: A549 cells (lung cancer) were cultured for 1 day before performing experiments. […] XLFit was used for curve fitting.

[9] = test system: cardiomyocytes differentiated from induced pluripotent stem cells; assay: doxorubicin-induced apoptosis, TUNEL dye, 48 hours (Example 18); format: cell-based, human; conditions: 1 μM doxorubicin, VIT 115 μM, Dex 160 μM, AMB 0.76 μM, NAC 50 μM, KAE 17 μM, MES 10 μM
Method: Following treatment, the samples were incubated with a TUNEL dye to indicate apoptosis-positive cells, and a second dye to identify cell nuclei.

[10] = test system: cardiomyocytes differentiated from induced pluripotent stem cells; assay: long-term mitochondrial health, TMRM, 7 days (Example 19); format: cell-based, human; conditions: doxorubicin and vitexin, compared to doxorubicin or doxorubicin and dexrazoxane
[11] = test system: cardiomyocytes differentiated from induced pluripotent stem cells; assay: electrophysiological activity with doxorubicin, active electrodes (Example 20); format: cell-based, human; conditions: for decrease in the number of active electrodes: 24 hours
Method: Samples were either mock-treated with 0.1% DMSO, treated with 1 μM doxorubicin, or co-treated with 1 μM doxorubicin and various concentrations of vitexin (e.g., 11.6 μM, 37 μM, or 116 μM). Following treatment, the percentage of active electrodes in each sample was measured for 72 hours. Percentage of active electrodes was quantified and graphed in a time course (FIG. 28A). The average number of active electrodes per well was quantified and graphed at 30 hours after the treatment (FIG. 28B, n=6, standard deviation is shown as error bars).

[12] = test system: cardiomyocytes differentiated from induced pluripotent stem cells; assay: acute toxicity on electrophysiology, MEA beat period and field potential duration (Example 23); format: cell-based; conditions: lower drug concentration, at least 20 minutes
Method: Samples were either mock-treated with 0.1% DMSO, or treated with increasing concentrations of the indicated drug for at least 20 minutes. Cardiomyocytes were treated with the hERG potassium channel blocker E4031 as a control. Following treatment, the beat period and field potential duration (FPD) were measured in each sample using the MEA.

TOPIIβ Inhibition [5]: − | TOPOIIβ inhibition, in words ([5]; decatenation assay): did not exhibit any inhibitory effect | TOPIIα Inhibition [7]: − | TOPOIIα inhibition, in words ([7]; decatenation assay): did not exhibit any inhibitory effect
SMILES: O=c1c(O)c(-c2ccc(O)cc2)oc2cc(O)cc(O)c12 [Compound 7, 3,5,7,4′-tetrahydroxyflavone]
decrease in mitochondrial toxicity, compared to doxorubicin without protective agent [1]: at least 60% | decrease in the number of active electrodes relative to the mock-treated sample [2]: no observable decrease | Toxicity ([3]; * = cytotoxicity at 100 μM): − | toxic effects at concentrations less than 100 μM ([3]; Table 1): did not show toxic effects | cytotoxicity, in words ([3]; at 100 μM where stated, Table 1): without some level of cytotoxicity | difference in the percentage of cell death vs doxorubicin without protective agent [4]: no significant difference | maximum rescue rate [6]: < 50% | EC50 ([6]; Homo sapiens, iPSC-CM, read-out: iPSC-CM protection EC50): 26 µM | Emax ([6]; Homo sapiens, iPSC-CM, read-out: iPSC-CM protection Max Effect (%)): 46% | cardioprotection, in words ([6]; Table 1): moderate level of cardioprotection | difference in the percentage of cell death vs doxorubicin without protective agent [8]: no significant difference

SMILES: O=c1cc(-c2ccc(O)cc2)oc2c([C@@H]3O[C@H](CO)[C@@H](O)[C@H](O)[C@H]3O)c(O)cc(O)c12 [vitexin]
decrease in the number of active electrodes relative to the mock-treated sample [2]: no observable decrease | decrease in apoptosis, compared to doxorubicin without protective agent [9]: at least 60% | long term mitochondrial protection [10]: improved long term mitochondrial protection | decrease in the number of active electrodes ([11]; 1 μM doxorubicin and 11.6 μM vitexin): ~50% | decrease in the number of active electrodes ([11]; 1 μM doxorubicin and 37 μM vitexin): ~25% | decrease in the number of active electrodes ([11]; 1 μM doxorubicin and 116 μM vitexin): ~0% | average number of active electrodes ([11]; 1 μM doxorubicin and 116 μM vitexin, 30 hours): about 10 active electrodes | difference in beat period or field potential duration vs control samples [12]: no appreciable difference | difference in the percentage of cell death vs doxorubicin without protective agent [4]: no significant difference | difference in the percentage of cell death vs doxorubicin without protective agent [8]: no significant difference
